Literature values in PubChem BioAssay AID493017 (Abbott Labs, 2003).

Target: Platelet-derived growth factor receptor alpha (Homo sapiens) (UniProt P16234)
Assay: PubChem AID 493017
Conditions: WOMBAT literature affinities, multiple human targets; PDGFR; gene PDGFRA; NCBI gene 5156

Chain of Platelet-derived growth factor receptor alpha (Homo sapiens) (P16234 whole entry, looked up): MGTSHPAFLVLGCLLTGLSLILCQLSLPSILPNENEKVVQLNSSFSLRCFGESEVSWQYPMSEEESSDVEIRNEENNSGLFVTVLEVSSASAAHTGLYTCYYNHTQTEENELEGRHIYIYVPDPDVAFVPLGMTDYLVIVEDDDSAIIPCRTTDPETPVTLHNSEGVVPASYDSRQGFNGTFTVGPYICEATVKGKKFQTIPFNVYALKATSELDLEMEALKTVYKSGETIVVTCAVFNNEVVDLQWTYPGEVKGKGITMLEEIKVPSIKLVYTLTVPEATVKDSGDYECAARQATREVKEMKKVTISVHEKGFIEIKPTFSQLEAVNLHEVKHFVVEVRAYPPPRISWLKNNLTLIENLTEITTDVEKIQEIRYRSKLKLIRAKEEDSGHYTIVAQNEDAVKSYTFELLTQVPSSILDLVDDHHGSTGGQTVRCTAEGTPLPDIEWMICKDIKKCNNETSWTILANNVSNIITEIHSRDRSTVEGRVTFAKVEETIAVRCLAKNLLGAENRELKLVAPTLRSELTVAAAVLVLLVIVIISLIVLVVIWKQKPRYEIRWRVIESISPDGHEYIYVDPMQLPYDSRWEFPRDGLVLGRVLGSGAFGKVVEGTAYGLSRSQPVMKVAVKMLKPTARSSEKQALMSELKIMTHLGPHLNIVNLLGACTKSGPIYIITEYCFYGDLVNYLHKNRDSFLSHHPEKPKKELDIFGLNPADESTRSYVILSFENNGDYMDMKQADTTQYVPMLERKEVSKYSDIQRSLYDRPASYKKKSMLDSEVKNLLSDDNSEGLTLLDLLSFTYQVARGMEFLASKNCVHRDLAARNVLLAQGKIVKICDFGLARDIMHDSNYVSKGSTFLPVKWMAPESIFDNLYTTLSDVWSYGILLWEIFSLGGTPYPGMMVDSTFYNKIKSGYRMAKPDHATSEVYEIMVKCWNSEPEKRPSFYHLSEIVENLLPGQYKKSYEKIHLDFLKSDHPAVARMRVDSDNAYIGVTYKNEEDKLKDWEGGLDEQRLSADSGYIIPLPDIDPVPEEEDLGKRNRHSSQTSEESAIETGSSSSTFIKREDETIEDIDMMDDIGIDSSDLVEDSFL

| IC50 | Structure (SMILES) |
| --- | --- |
| 3.6 µM | COc1cc2nccc(Oc3ccc(NC(=O)c4ccc(C(C)=O)cc4)cc3)c2cc1OC |
| 0.33 µM | COc1cc2nccc(Oc3ccc(N(C)C(=O)c4ccc(C(C)(C)C)cc4)cc3)c2cc1OC |
| 0.44 µM | COc1cccc(Oc2ccnc3cc(OC)c(OC)cc23)c1 |
| 0.05 µM | COc1cc2nccc(Oc3ccc(NC(=O)c4ccc(C(C)(C)C)cc4)cc3)c2cc1OC |
| 0.15 µM | CCCCc1ccc(C(=O)c2ccc(Oc3ccnc4cc(OC)c(OC)cc34)cc2)cc1 |
| 4.4 µM | COc1cc2nccc(Oc3cccc(OC)c3OC)c2cc1OC |
| 6.9 µM | COc1cc2nccc(Oc3cccc(C)c3)c2cc1OC |
| 15 µM | COc1cc2nccc(Oc3ccc(C(C)=O)cc3)c2cc1OC |
| 48 µM | COc1cc2nccc(Oc3ccccc3C(=O)c3ccccc3)c2cc1OC |
| 7.2 µM | COc1cc2nccc(Oc3ccc(C(=O)c4ccccc4C(F)(F)F)cc3)c2cc1OC |
| 1.7 µM | COc1cc2nccc(Oc3ccc(C(=O)c4ccc(C)cc4)cc3)c2cc1OC |
| 0.76 µM | COc1cc2nccc(Oc3ccccc3)c2cc1OC |
